SMILES strings stand for the structures.

One assay concerns the target T1, α2C adrenergic receptors (Homo sapiens, UniProt P18825).
T1 construct: expressed in transfected cells; host or cells: CHO cells
T1 sequence (P18825 1-462): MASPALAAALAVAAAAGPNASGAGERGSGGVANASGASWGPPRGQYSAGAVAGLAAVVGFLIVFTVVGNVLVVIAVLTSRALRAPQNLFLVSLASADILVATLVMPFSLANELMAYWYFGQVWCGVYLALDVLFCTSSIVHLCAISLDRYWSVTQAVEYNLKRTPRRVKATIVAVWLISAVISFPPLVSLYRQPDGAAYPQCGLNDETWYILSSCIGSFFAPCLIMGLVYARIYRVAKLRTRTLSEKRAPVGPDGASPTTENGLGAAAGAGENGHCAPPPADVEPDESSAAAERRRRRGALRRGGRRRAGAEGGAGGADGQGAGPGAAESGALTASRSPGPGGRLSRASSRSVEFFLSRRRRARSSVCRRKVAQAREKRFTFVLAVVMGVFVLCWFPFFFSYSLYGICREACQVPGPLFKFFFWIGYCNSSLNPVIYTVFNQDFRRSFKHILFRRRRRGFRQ
The experiment in a line: Radioligand binding assay, adrenergic α2C receptors. Conditions: test compound 1×10^−6 M. From the text: (§1) The specific ligand binding to the receptors is defined as the difference between the total binding and the non-specific binding determined in the presence of the excess of unlabelled ligand.
(§2) The results are expressed as a percent of control specific binding ((measured specific binding/control specific binding)×100) and as a percent inhibition of control specific binding (100−((measured specific binding/control specific binding)×100)) obtained in the presence of the test compounds. The specific ligand binding to the receptors is defined as the difference between the total binding and the nonspecific binding determined in the presence of an excess of unlabelled ligand. Scintillation counting was the method of detection of ligand binding. The IC50 values (concentration causing a half-maximal inhibition of control specific binding) were determined by non-linear regression analysis of the competition curves generated with mean replicate values using Hill equation curve fitting (Y=D+[(A−D)/(1+(C/C50)nH)], where Y=specific binding, D=minimum specific binding, A=maximum specific binding, C=compound concentration, C50=IC50, and nH=slope factor). This analysis was performed using a software developed at Cerep (Hill software) and validated by comparison with data generated by the commercial software SigmaPlot® 4.0 for Windows® (© 1997 by SPSS Inc.). The inhibition constants (Ki) were calculated using the Cheng Prusoff equation (Ki=IC50/(1+(L/KD)), where L=concentration of radioligand in the assay, and KD=affinity of the radioligand for the receptor). A scatchard plot was used to determine the Kd.
Experimental conditions for tests are given in Table 7, and results of tests for representative compounds are given in Tables 8 (α1 receptors) and in Tables 9 (α2C receptors).

The target in assay [1] is T2, serotonin transporter (SERT) (Homo sapiens, UniProt P31645).
T2 construct: expressed in transfected cells; host or cells: CHO cells
The experiment in a line: Radioligand binding assay, serotonin transporter (SERT). In a few lines: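 Values are derived from competition curves fitted by the Hill equation to give IC50, then converted to Ki by Cheng-Prusoff with radioligand Kd from Scatchard analysis. Specific binding equals total minus non-specific (excess cold ligand), counted by scintillation, and is also expressed as percent inhibition of control.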

In assay [2] the target is dopaminergic receptors D2 (Homo sapiens, UniProt P14416). The experiment in a line: Radioligand binding assay, dopaminergic D2 receptors. Conditions: for Ki: read-out: Inhibition constants Ki for D2 receptors, D2. In a few lines:
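Values derive from competition curves: percent inhibition of control specific binding was fitted by Hill non-linear regression for IC50, and Ki calculated with Cheng–Prusoff from radioligand concentration and KD (Scatchard). Bound ligand was detected by scintillation counting.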

Assay [3] addresses T3, 5-HT1A receptor (rat hippocampus) (Rattus norvegicus, UniProt P19327).
T3 construct: hippocampus; from tissue; host or cells: rat hippocampus
T3 sequence (P19327 1-422): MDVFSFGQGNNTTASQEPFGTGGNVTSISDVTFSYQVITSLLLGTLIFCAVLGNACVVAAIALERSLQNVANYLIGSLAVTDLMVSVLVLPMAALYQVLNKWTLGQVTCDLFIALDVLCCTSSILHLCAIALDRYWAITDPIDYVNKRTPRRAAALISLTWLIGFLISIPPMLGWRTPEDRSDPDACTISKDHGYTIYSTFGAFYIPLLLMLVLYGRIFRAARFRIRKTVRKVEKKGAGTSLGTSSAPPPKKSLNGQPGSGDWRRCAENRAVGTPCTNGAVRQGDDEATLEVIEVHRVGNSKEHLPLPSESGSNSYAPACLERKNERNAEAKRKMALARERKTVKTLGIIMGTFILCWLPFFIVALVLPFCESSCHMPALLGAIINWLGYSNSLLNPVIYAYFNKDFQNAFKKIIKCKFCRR
As to the kind of experiment: Radioligand binding assay, serotoninergic 5-HT1A receptors.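 Also: test compound at 1 µM.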 The following applies: binding assay result in %, Table 5a.

The target in a further assay is T4, 5-HT2C receptor (Homo sapiens, UniProt P28335).
T4 construct: expressed in transfected cells; host or cells: HEK-293 cells
T4 sequence (P28335 33-458): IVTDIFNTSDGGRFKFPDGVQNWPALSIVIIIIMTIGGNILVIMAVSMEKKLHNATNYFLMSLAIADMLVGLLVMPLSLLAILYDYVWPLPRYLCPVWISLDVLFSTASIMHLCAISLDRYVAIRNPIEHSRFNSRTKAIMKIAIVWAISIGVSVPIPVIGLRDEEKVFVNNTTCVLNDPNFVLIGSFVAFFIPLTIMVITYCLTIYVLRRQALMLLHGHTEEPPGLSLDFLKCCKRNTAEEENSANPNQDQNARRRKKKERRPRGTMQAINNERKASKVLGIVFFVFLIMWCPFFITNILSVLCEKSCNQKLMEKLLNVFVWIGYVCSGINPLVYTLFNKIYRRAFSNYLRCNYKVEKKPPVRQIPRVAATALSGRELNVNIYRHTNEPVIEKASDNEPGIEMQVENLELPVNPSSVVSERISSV
The experiment in a line: Radioligand binding assay, serotoninergic 5-HT2C receptors. The following applies: test compound 1×10^−6 M.
From the text: as §1, §2
Experimental conditions for tests are given in Table 4, and results of tests for representative compounds of the invention are given in Table 5a and 5b (receptors 5-HT1A, 5-HT2A, 5-HT6 and 5-HT7) and in Table 6 (receptors 5-HT2C).

In the next assay the target is T5, 5-HT7 receptor (Homo sapiens, UniProt P34969).
T5 construct: purchased PerkinElmer
As to the kind of experiment: Radioligand binding assay, serotoninergic 5-HT7 receptors.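 Also: test compound at 1 µM.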 The following applies: binding assay result in %, Table 5a. The method in brief: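 Ki values used the Cheng–Prusoff equation, with KD from Scatchard analysis, applied to IC50 from Hill fits of human 5-HT7 radioligand competition curves. Bound radioligand was counted by scintillation, and excess unlabelled ligand set the non-specific binding.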

[4] abbreviates: binding assay, test compound 1×10^−6 M.

T2 sequence (P31645 whole entry): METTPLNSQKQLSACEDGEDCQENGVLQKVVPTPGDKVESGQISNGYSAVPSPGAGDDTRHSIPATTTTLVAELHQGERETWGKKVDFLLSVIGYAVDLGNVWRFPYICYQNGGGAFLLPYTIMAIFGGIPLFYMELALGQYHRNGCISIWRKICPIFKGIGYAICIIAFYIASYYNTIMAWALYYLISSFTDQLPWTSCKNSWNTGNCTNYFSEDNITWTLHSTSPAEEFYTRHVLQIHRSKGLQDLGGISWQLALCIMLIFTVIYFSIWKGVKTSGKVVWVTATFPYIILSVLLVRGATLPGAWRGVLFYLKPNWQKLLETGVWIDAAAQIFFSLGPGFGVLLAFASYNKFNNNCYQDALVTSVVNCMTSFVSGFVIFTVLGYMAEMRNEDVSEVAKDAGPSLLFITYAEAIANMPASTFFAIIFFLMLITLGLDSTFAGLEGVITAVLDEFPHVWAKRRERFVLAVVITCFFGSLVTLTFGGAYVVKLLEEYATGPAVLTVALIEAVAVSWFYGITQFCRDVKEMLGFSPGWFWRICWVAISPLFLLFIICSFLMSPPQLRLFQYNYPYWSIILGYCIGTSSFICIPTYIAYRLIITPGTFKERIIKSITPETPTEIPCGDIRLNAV
T5 sequence (P34969 whole entry): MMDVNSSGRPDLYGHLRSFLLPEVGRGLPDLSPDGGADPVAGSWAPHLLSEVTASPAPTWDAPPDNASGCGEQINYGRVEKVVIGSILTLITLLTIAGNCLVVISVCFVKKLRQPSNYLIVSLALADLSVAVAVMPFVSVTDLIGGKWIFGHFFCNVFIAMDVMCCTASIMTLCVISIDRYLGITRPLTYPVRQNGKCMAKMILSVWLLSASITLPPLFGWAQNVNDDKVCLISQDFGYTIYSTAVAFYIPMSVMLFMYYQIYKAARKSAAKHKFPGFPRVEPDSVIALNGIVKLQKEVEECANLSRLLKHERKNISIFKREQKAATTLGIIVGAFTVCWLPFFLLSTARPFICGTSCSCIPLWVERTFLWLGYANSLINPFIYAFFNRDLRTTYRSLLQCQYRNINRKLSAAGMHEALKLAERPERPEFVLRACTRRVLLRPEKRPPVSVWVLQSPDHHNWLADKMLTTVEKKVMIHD
Chain of dopaminergic receptors D2 (P14416 whole entry): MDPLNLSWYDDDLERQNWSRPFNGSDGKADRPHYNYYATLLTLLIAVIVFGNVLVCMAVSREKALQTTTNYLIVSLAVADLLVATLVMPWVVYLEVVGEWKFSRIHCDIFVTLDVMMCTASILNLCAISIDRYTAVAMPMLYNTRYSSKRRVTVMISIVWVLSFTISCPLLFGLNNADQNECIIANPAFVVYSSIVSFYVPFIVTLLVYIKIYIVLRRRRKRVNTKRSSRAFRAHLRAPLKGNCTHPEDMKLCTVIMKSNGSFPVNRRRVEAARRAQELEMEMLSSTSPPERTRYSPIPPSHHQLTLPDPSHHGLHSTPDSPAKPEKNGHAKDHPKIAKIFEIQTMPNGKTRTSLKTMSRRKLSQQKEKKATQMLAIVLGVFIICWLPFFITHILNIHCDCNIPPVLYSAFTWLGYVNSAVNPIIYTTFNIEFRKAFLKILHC

Take `O=S(=O)(NC1CCN(CCOc2nsc3ccccc23)C1)c1ccc2ccccc2c1` (stereo not shown) [Compound 39, N-[1-[2-(1,2-Benzothiazol-3-yloxy)ethyl]pyrrolidin-3-yl]naphthalene-2-sulphonamide]: the inhibition at 1 µM at α2C adrenergic receptors turned out to be 92%; in assay [1] (setting [4]), 29%; in assay [2] (setting [4]), 86%; in assay [3], 99%; on 5-HT2C receptor, 74%; at 5-HT7 receptor, 90%.

On to `O=S(=O)(NC1CN(CCOc2cccc3[nH]ccc23)C1)c1cccc2ccccc12` [Compound 49, N-[1-[2-(1H-Indol-4-yloxy)ethyl]azetidin-3-yl]naphthalene-1-sulphonamide], for which the inhibition at 1 µM stood at 110% at α2C adrenergic receptors; 41% in assay [1] (setting [4]); 99% in assay [2] (setting [4]); 100% in assay [3]; 59% at 5-HT2C receptor; 100% on 5-HT7 receptor.

Take `O=S(=O)(NC1CCN(CCCc2c[nH]c3ccc(F)cc23)C1)c1ccc2ccccc2c1` (stereo not shown) [Compound 80, N-[1-[3-(5-Fluoro-1H-indol-3-yl)propyl]pyrrolidin-3-yl]naphthalene-2-sulphonamide]: the inhibition at 1 µM on α2C adrenergic receptors is 88%; in assay [1] (setting [4]), 104%; in assay [2] (setting [4]), 96%; in assay [3], 98%; on 5-HT2C receptor it was 86%; on 5-HT7 receptor it was 93%. In assay [1] (read-out: Inhibition constants Ki for SERT, SERT), the Ki is 0.5 nM.

Turning to `O=S(=O)(NC1CN(CCOc2cccc3c2OCCO3)C1)c1cccc2ccccc12` [Compound 94, N-[1-[2-(2,3-Dihydro-1,4-benzodioxan-8-yloxy)ethyl]azetidin-3-yl]-naphthalene-1-sulphonamide], at α2C adrenergic receptors, the “α2C [%]” value was found to be 106%. Moreover, the “SERT [%]” value in assay [1] (setting [4]) is recorded as 62%. Further, the “D2 [%]” value in assay [2] (setting [4]) is given as 102%. Besides, the “5-HT1A [%]” value in assay [3] stood at 98%. Further, the “5-HT2C [%]” value at 5-HT2C receptor is listed as 91%. The “5-HT7 [%]” value at 5-HT7 receptor was 100%.

Take `O=S(=O)(N[C@@H]1CCN(CCCc2noc3cc(F)ccc23)C1)c1ccc2cc(Cl)ccc2c1` [Compound 200, 6-Chloro-N-[(3R)-1-[3-(6-fluoro-1,2-benzoxazol-3-yl)propyl]pyrrolidin-3-yl]naphthalene-2-sulphonamide]: the inhibition at 1 µM at α2C adrenergic receptors amounted to 96%; in assay [1] (setting [4]) it was 74%; in assay [2] (setting [4]), 100%; in assay [3], 50%; at 5-HT2C receptor it was 77%; on 5-HT7 receptor, 93%. Also, the Ki in assay [2] is 0.1 nM.

With `Cc1c(S(=O)(=O)N[C@@H]2CCN(CCCc3noc4cc(F)ccc34)C2)sc2ccc(F)cc12` [Compound 202, 5-Fluoro-N-[(3R)-1-[3-(6-fluoro-1,2-benzoxazol-3-yl)propyl]pyrrolidin-3-yl]-3-methyl-benzothiophene-2-sulphonamide], the inhibition at 1 µM was found to be 95% on α2C adrenergic receptors; 58% in assay [1] (setting [4]); 101% in assay [2] (setting [4]); 65% in assay [3]; 88% on 5-HT2C receptor; 98% at 5-HT7 receptor. Also, the Ki in assay [2] amounted to 1.2 nM.

Take `Cc1c(S(=O)(=O)N[C@@H]2CCN(CCCc3noc4cc(F)ccc34)C2)sc2ccc(Cl)cc12` [Compound 204, 5-Chloro-N-[(3R)-1-[3-(6-fluoro-1,2-benzoxazol-3-yl)propyl]pyrrolidin-3-yl]-3-methyl-benzothiophene-2-sulphonamide]: the inhibition at 1 µM came out at 89% on α2C adrenergic receptors; 70% in assay [1] (setting [4]); 98% in assay [2] (setting [4]); 71% in assay [3]; 87% on 5-HT2C receptor; 87% on 5-HT7 receptor. The Ki in assay [2] was 0.4 nM.

In general, inhibition refers to the relative decrease from the control value, in per cent. By Ki is commonly meant the dissociation constant of the complex between target and ligand, obtained from inhibition or displacement.

The values are drawn from patent US20140135310A1, “SULPHONAMIDE DERIVATIVES OF ALICYCLIC AMINES FOR THE TREATMENT OF CENTRAL NERVOUS SYSTEM DISEASES” (Adamed Sp. z o.o., priority 2011, published 2014).
